Columns and labels:
Assay in all cases: area under dose-response curve of surviving fraction (unscaled, Aref=0) (surviving fraction x log10(nM)); higher = more resistant
Conditions in all cases: exposure time: 5 days; dose range 0.5-1000 nM
[1] = compound: CC[C@@H]1C(=O)N(C)c2cnc(Nc3ccc(C(=O)NC4CCN(C)CC4)cc3OC)nc2N1C1CCCC1 [BI-2536]
Procedure, shortened: (§1)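 Tumour cell lines in 384-well plates were exposed for five days to eight inhibitor concentrations from 0.5 to 1000 nM. Viability was read by CellTiter-Glo luminescence, normalised to DMSO-only wells, in three screens per line. Dose-response survival curves were fitted to surviving fractions by 3-parameter logistic regression in the drc R package. Area under the curve is the unscaled activity area (Aref = 0) over log10 dose.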

[2] = compound: C=CC(=O)Nc1cc2c(Nc3ccc(F)c(Cl)c3)ncnc2cc1OCCCN1CCOCC1 [CANERTINIB]
Procedure, shortened: as §1

[3] = compound: Nc1nc2[nH]cnc2c(=S)[nH]1 [TIOGUANINE]
Procedure, shortened: as §1

[4] = compound: CNC(=O)c1ccc(N2C(=S)N(c3ccc(C#N)c(C(F)(F)F)c3)C(=O)C2(C)C)cc1F [MDV3100]
Procedure, shortened: as §1

| Test System | area under dose-response curve [1] | area under dose-response curve [2] | area under dose-response curve [3] | area under dose-response curve [4] |
| --- | --- | --- | --- | --- |
| HU09 BONE | 0.614 | 3.15 | 3.42 | – |
| BT549 BREAST | 0.891 | 2.74 | 3.29 | 3.26 |
| HOS BONE | 0.874 | 3.14 | 3.16 | 3.36 |
| ASKA SYNOVIAL | 1.04 | – | 3.56 | – |
| SCC90 HEADNECK | 0.697 | 2.13 | 3.22 | – |
| SKBR3 BREAST | 0.991 | 1.75 | 3.36 | – |
| C33A CERVIX | 0.996 | – | 2.8 | 3.15 |
| SYO1 SYNOVIAL | 0.562 | 2.48 | 2.43 | 2.45 |
| YAMATO SYNOVIAL | 1.27 | 3.14 | 4.3 | 2.85 |
| HT1080 SOFT TISSUE | 1.26 | 3.29 | 3.16 | 3.42 |
| SCC003 HEADNECK | 1.71 | 2.54 | 3.27 | 3.21 |
| PCI30 HEADNECK | 1.08 | 2.01 | 3.19 | 3.18 |
| HSSYII SYNOVIAL | 0.796 | 2.66 | 3.09 | 2.74 |
| HCC70 BREAST | 2 | 3 | 3.37 | 3.28 |
| VCAP PROSTATE | 0.516 | 3.15 | 3.49 | – |
| ZR751 BREAST | 2.69 | 2.8 | – | 3.69 |
| SIHA CERVIX | 1.43 | 2.92 | 3.01 | 3.05 |
| CHLA90 AUTONOMIC GANGLIA | 1.2 | 2.51 | 3.12 | 2.67 |
| NCIH441 LUNG | 1.79 | 3.05 | 3.28 | 3.25 |
| MCF7 BREAST | 1.8 | 2.76 | 2.83 | 2.89 |
| COLO320DM LARGE INTESTINE | 1.68 | 3.25 | 3.52 | 3.31 |
| NOS1 BONE | 1.35 | 3.08 | 3.79 | – |
| KPD BONE | 1.5 | 3.06 | 3.35 | 3.28 |
| HMT3552 BREAST | – | 2.58 | – | 3.66 |

| Test System | area under dose-response curve [1] | area under dose-response curve [2] | area under dose-response curve [3] | area under dose-response curve [4] |
| --- | --- | --- | --- | --- |
| HMLE3 BREAST | 1.26 | 2.91 | 3.06 | 3.23 |
| CAL51 BREAST | 0.68 | 3.08 | 3.31 | 3.24 |
| JURKAT HAEMATOPOIETIC AND LYMPHOID TISSUE | 0.479 | 3.29 | 3.27 | 3.49 |
| MDAMB468 BREAST | 1.06 | 2.41 | 3.52 | 3.41 |
| CASKI CERVIX | 0.43 | 1.85 | 3.1 | 3.17 |
| MG63 BONE | 1.12 | 3.24 | 3.29 | 3.28 |
| JIMT1 BREAST | 0.911 | 2.93 | 3.25 | 3.33 |
| HELA CERVIX | 1 | 3.11 | 3.36 | 3.16 |
| HCC1806 BREAST | 0.671 | 2.12 | 3.5 | 3.52 |
| OSHN BONE | 1.13 | 3.16 | – | 3.44 |
| HOSMNG BONE | 1.32 | 3.4 | 3.34 | 3.56 |
| SCC36 HEADNECK | 1.03 | 2.1 | 3.72 | 3.27 |
| CADOES1 SOFT TISSUE | 1.66 | 3 | 3.12 | 2.95 |
| CME SYNOVIAL | 1.64 | 3.18 | 3.97 | 2.99 |
| 93VU HEADNECK | 1.49 | 2.56 | 3.19 | 3.11 |
| LNCAP PROSTATE | 0.892 | – | 3.21 | 3.01 |
| CAL120 BREAST | 0.616 | 3.01 | 3.05 | 3.07 |
| MDAMB436 BREAST | 1.46 | 2.86 | 2.8 | 3.1 |
| SG27 HEADNECK | 2.97 | 3.27 | 3.34 | – |
| MDAMB134 BREAST | 2.89 | 2.36 | 3.2 | – |
| HCC78 LUNG | 0.803 | 2.55 | 2.59 | 2.9 |
| 143B BONE | 0.815 | – | 3.27 | – |
| SJSA1 BONE | 1.58 | – | 3.46 | 2.71 |
| SG32 HEADNECK | 1.44 | 2.35 | 3.59 | 3.4 |

| Test System | area under dose-response curve [1] | area under dose-response curve [2] | area under dose-response curve [3] | area under dose-response curve [4] |
| --- | --- | --- | --- | --- |
| SG28 HEADNECK | 2.69 | – | 3.45 | – |
| LM7 BONE | 0.659 | 2.42 | 3.33 | 3.51 |
| MHM BONE | 2.08 | 3.2 | 3.29 | 3.28 |
| SG31 HEADNECK | 2.2 | 2.3 | – | 3.39 |
| S68 BREAST | 1.03 | 2.53 | 3.32 | 3.58 |
| SAOS2 BONE | 0.684 | 2.87 | 3.44 | 3.65 |
| HS578T BREAST | 0.912 | 2.92 | 3.13 | 3.38 |
| CAL72 BONE | 0.831 | – | 3.66 | 3.36 |
| MFM223 BREAST | 0.566 | 2.88 | 3.53 | 3.56 |
| H23 LUNG | 1.66 | 1.77 | 3.25 | 3.13 |
| DU4475 BREAST | 1.14 | 2.65 | 2.55 | 3.04 |
| 22RV1 PROSTATE | 0.963 | 3.32 | 3.28 | 3.12 |
| MDAMB157 BREAST | 0.791 | 2.78 | 3.03 | 3.08 |
| HCC202 BREAST | 1.68 | – | 4.41 | – |
| HCT15 LARGE INTESTINE | 1.88 | 2.73 | – | 2.75 |
| BT20 BREAST | 0.663 | 2.52 | 3.43 | 3.5 |
| SUM149 BREAST | 0.784 | 1.76 | – | 2.73 |
| HCC1954 BREAST | 1.92 | 0.92 | 3.09 | – |
| G292 BONE | 0.883 | 3.18 | 3.25 | 3.25 |
| SG43 HEADNECK | 1.83 | 1.92 | 2.96 | 3.06 |
| SNU475 LIVER | 1.41 | 2.91 | 3.14 | 2.8 |
| T47D BREAST | 1.66 | 3.01 | 3.35 | 3.29 |
| SUM159 BREAST | 1.81 | 3.11 | – | 3.33 |
